Patent US7071207B2, “Preparation and use of 1,5,6,7-tetrahydropyrrolo[3,2-c]pyridine derivatives for treatment of obesity” (Bayer Pharmaceuticals Corporation, priority 2001, dated 2006)
Structures can show the parent of a compound that is named as a salt.

Columns and labels:
[1] = Measurement of brain exposure; type: in vivo; conditions: male, obese Zucker fa/fa, rat, brain homogenate, oral; 10 mg/kg p.o.; brains collected at 2 hours post-dosing; read-out: brain homogenate exposure level
Procedure: Measurement of Brain Exposure
Male obese Zucker fa/fa rats are administered compounds, typically at 10 mg/kg p.o., and then brains are collected at 2 hours post-dosing for determination of brain concentration. Brains are weighed and homogenized with 4 mL 10 mM ammonium acetate buffer (pH 3), and the brain tissue homogenate samples are extracted via protein precipitation with acetonitrile. Samples are vortexed, centrifuged, and analyzed by liquid chromatography utilizing mass spectrometer selective detection (LC/MS/MS) using the heated nebulizer interface. Samples are quantitated using weighted (1/x^2) linear internal standard calibration curve.

[2] = test system: obese Zucker fa/fa rats; assay: Chronic feeding assay (body weight, food and water consumption); type: in vivo, rat; conditions: once per day at 10 mg/kg p.o.; day 6 of treatment
Text: Evaluation of Compound's Efficacy on the Reduction of Body Weight and Food and Water Consumption in Obese Zucker fa/fa Rats
The purpose of this protocol is to determine the effect of chronic administration of an unknown compound on body weight and food and water consumption in obese Zucker fa/fa rats. Obese Zucker fa/fa rats are frequently used in the determination of compound efficacy in the reduction of body weight. This animal model has been successfully used in the identification and characterization of the efficacy profile of compounds that are or have been used in the management of body weight in obese humans (see, e.g., Al-Barazanji et al., Obes Res. 8:317–323, 2000; Assimacopoulos-Jeannet et al., Am. J. Physiol. 260(2 Pt 2):R278–283, 1991; Dryden et al., Horm. Metab. Res. 31:363–366, 1999; Edwards and Stevens, Pharmacol. Biochem. Behav. 47:865–872, 1994; Grinker et al., Pharmacol. Biochem. Behav. 12:265–275, 1980).
A typical study includes 60–80 male Zucker fa/fa (n=10/treatment group) with an average body weight of approximately 550 g. […]
Animals are orally gavaged (2 mL/kg) daily before the dark phase of the LD/cycle for a pre-determined number of days (typically 6–14 days) with their assigned dose/compound. At this time, body weight, food and water consumption are measured. On the final day, animals are euthanized by CO2 inhalation, and the body weight is measured.

Row | Compound | concentration at 2 h [1] [nM] | increase in body weight from baseline [2]
1 | O[C@@H]1CCCC[C@H]1N1CCc2c(cc(-c3ccc(Cl)cc3)n2-c2ccccc2Cl)C1 (relative stereo) [entry 18, trans-2-[1-(2-chlorophenyl)-2-(4-chlorophenyl)-1,4,6,7-tetrahydro-5H-pyrrolo[3,2-c]pyridin-5-yl]cyclohexanol hydrochloride] | > 500 | 
2 | COc1ccc(-c2c(C)c3c(n2-c2ccccc2Cl)CCN(N2CCCCC2)C3=O)cc1.Cl [entry 189, 1-(2-chlorophenyl)-2-(4-methoxyphenyl)-3-methyl-5-(1-piperidinyl)-1,5,6,7-tetrahydro-4H-pyrrolo[3,2-c]pyridin-4-one hydrochloride] |  | no increase in body weight from baseline
